Paper PMC9295539 (Antimicrobial Agents and Chemotherapy, 2022)
“Also recorded” adds a separate entry of the source. Where two headings read alike, the source gives them in different places.

How the values were obtained:
[1] = system: G. lamblia WB6 (assemblage A); assay: G. lamblia WB6 cell growth inhibition assay; format: cell-based; conditions: Giardia duodenalis; assemblage A; read-out: EC50 against G. lamblia strain WB6
[2] = Clinical evaluation of overall health of mice in PK and efficacy studies; conditions: all mice used for in vivo PK and efficacy studies
G. lamblia CBG99 = conditions: mice
Description: The method relies on a stable constitutive reporter, CBG99, that correlates with total parasite load.
In vitro reconfirmation and expanded tests against EGFR-TKIs using the G. lamblia CBG99 strain were performed as previously described ([11]). […] The PK studies were performed in groups of 3 mice per compound. […] All animal experiments were approved by the Institutional Animal Care and Use Committees at the University of Washington.

[3] = Mouse pharmacokinetics, oral gavage, plasma LC-MS/MS; format: in vivo; conditions: for half-life: read-out: average half-life (t1/2); for plasma level: 1 mg/kg QD
[4] = CRL-8155 cytotoxicity, resazurin-based viability assay; format: cell-based; conditions: human, CRL-8155 lymphocytic cells; read-out: CC50 against CRL-8155 cells
Description: (§1) Experimental details for the assays were described previously ([50]). […] Assays were performed as previously reported ([51]).

[5] = HepG2 cytotoxicity, resazurin-based viability assay; format: cell-based; conditions: human, HepG2 cells; read-out: CC50 against HepG2 cells
Description: as §1

[6] = HEK293T cytotoxicity counterscreen, luminescent ATP viability assay; conditions: human, HEK293T cells
Description: (§2) Compounds were screened at 5 μM with metronidazole (40 μM) as an inhibitor control and dimethyl sulfoxide (DMSO) as a neutral control. […] These primary hits were immediately assayed for reconfirmation and mammalian cytotoxicity against HEK293T cells in an 8-point dose-response format.
as §1
(§3) Relative luminescence unit (RLU) values were analyzed in Genedata Screener (v13.0-Standard). RLU values were normalized to neutral controls minus inhibitors (DMSO-treated wells minus metronidazole-treated wells). For single-point primary assay plates, an additional run-wise median correction was applied to reduce screen artifacts, whereas no corrections were applied to triplicate dose-response plates. For the mammalian cytotoxicity assays, RLU values were uploaded into Genedata Screener, and the data were normalized to those for DMSO-treated wells minus puromycin-treated wells.

[7] = Allometric scaling of efficacious mouse doses to human-equivalent dose; conditions: 150 mg human dose (2.6 to 1.9 mg/kg) versus predicted human efficacious dose
Description: Its chemical synthesis and safety profiles and a partial analysis of its pharmacokinetic properties have been described previously ([18], [43]). […] Given that the average adult weight worldwide ranges from 57.7 kg in Asia to 80.7 kg in North America ([46]), a 150 mg dose equates to 2.6 to 1.9 mg/kg. […]. This leaves a possible safety window of 4.6 to 13 times the efficacious dose, depending on the dose needed and the weight of the adult patient. Since the equivalent human efficacious dose (based on the murine efficacy data) is below the clinical trial threshold and the drug may not necessitate more than 7 daily doses, it could be speculated that all previously obtained good laboratory practices (GLP) toxicological data associated with the Phase I clinical trials remain relevant and may not need to be repeated. […] Reduced cost of development should have a direct impact on the cost of goods for the target population. This is certainly true for G. lamblia.

[8] = system: metronidazole-resistant 713-M3 strain; assay: Metronidazole-resistant G. lamblia 713-M3 cell growth inhibition assay; format: cell-based; conditions: Giardia duodenalis, read-out: EC50 against G. lamblia strain 713-M3
[9] = system: Giardia lamblia GS clone H7; assay: G. lamblia GS clone H7 trophozoite growth, ATP-based bioluminescence assay (BacTiter-Glo), 1,536-well; format: cell-based; conditions: Giardia duodenalis
Description: as §2
The primary screen was conducted at 5 μM. […] All source plates were 384-well acoustic, transfer-compatible plates with compounds prediluted in DMSO at either 2 mM or 10 mM. […] Primary screening was done with a single replicate, whereas dose-response testing was carried out in triplicate.
To prevent attachment to the bottle and tubing of the dispenser cassette, the bottle containing the culture was kept on ice throughout the dispensing process. […] The bags were heat sealed and the anaerobic generator was activated according to the manufacturer’s instructions. […] Luminescence was read on a ViewLux uHTS microplate imager (PerkinElmer) with medium-sensitivity luminescence at 30 s of exposure.
as §3

[10] = design: method as in doi:10.1016/j.jtho.2016.11.1668; conditions: adults; >150 mg daily oral doses over 7 days; cited from earlier work
[11] = mouse, single oral dose 5 mg/kg
[12] = mouse, single oral dose 20 mg/kg
[13] = mouse, single oral dose 50 mg/kg

In the case of `C=CC(=O)N[C@@H]1CN(c2nc(Nc3cn(C)nc3OC)c3ncn(C)c3n2)C[C@H]1F` [Mavelertinib, N-((3R,4R)-4-fluoro-1–(6-((3-methoxy-1-methyl-1H-pyrazol-4-yl)amino)-9-methyl-9H-purin-2-yl)pyrrolidine-3-yl)acrylamide], the EC50 [1] is reported as 270 ± 170 nM, the observable toxicity [2] is reported as “no observable mavelertinib-induced toxicology potentials” and the “clearance of infection (luminescence signal)” value (G. lamblia CBG99; 2.5 mg/kg QD for 2 days) is reported as “one of four mice remained infected”. For the same molecule, the “clearance of infection (luminescence signal)” value (G. lamblia CBG99; 5 mg/kg QD for 2 days, 5 mg/kg) was “cleared the infection below the background signal”, the “clearance of infection (luminescence signal)” value (G. lamblia CBG99; 5 mg/kg QD for 2 days, listed as mavelertinib, 5 mg/kg) was “absence of luminescence signal” and the “clearance of infection (luminescence signal)” value (G. lamblia CBG99; 20 mg/kg QD for 2 days, 20 mg/kg) was “cleared the infection below the background signal”. For the same molecule, the “clearance of infection (luminescence signal)” value (G. lamblia CBG99; 20 mg/kg QD for 2 days, listed as mavelertinib, 20 mg/kg) was “absence of luminescence signal”, the “clearance of infection (luminescence signal)” value (G. lamblia CBG99; 50 mg/kg QD for 1 day, dose-response experiment, 50 mg/kg) was “cleared the infection below the background signal” and the “clearance of infection (luminescence signal)” value (G. lamblia CBG99; 50 mg/kg QD for 1 day, dose-response experiment, listed as mavelertinib, 50 mg/kg) was “absence of luminescence signal”. For the same molecule, the clearance of infection (G. lamblia CBG99; 50 mg/kg QD for 3 days, data not shown) was “appeared to clear the infection”, the clearance of infection (G. lamblia CBG99; 50 mg/kg QD, 1- and 2-day dosing, remained clear a week after dosing) was “all treated mice were cleared of infection” and the “parasite rebound after treatment” value (G. lamblia CBG99; about 1 week after the last therapeutic dose) was “parasites did not rebound”. The half-life ([3]; in vivo, mouse, single oral dose 5 mg/kg) was 3.99 h, the plasma trough levels ([3]; infected mice, all treatment groups, days 6 and 7 postinfection (24 h and 48 h after the first dose)) was “below the limit of quantitation” and the plasma level ([3]; mouse, 0.5 h postdose, one mouse) was “barely detectable”. The plasma level ([3]; mouse, all time points after 0.5 h) was “below the limit of detection”, the plasma level ([3]; mouse, all time points sampled (Fig. 4 legend)) was “barely detectable” and the “time at which Cmax was observed (Tmax)” value ([3]; mouse, oral, in all cases (all doses)) was 0.5 h. The “plasma concentration at 24 h postdose” value ([3]; mouse, single dose, all dosage groups) was “cleared from plasma; also recorded: below the detection limit”, the “area under the curve (AUC)” value [3, 11] was 89 µmol·min/L and the clearance [3, 11] was 0.015 L/min. The “area under the curve (AUC)” value [3, 12] was 300 µmol·min/L, the clearance [3, 12] was 0.004 L/min and the “area under the curve (AUC)” value [3, 13] was 812 µmol·min/L. For the same molecule, the clearance [3, 13] was 0.0016 L/min, the Cmax ([3]; plasma, mouse, single oral dose 5 mg/kg, read-out: maximum plasma concentration (Cmax)) was 0.63 µM and the half-life ([3]; plasma, mouse, single oral dose 20 mg/kg) was 2.91 h. For the same molecule, the Cmax ([3]; plasma, mouse, single oral dose 20 mg/kg, read-out: maximum plasma concentration (Cmax)) was 3.5 µM, the half-life ([3]; plasma, mouse, single oral dose 50 mg/kg) was 2.09 h and the Cmax ([3]; plasma, mouse, single oral dose 50 mg/kg, read-out: average maximum plasma concentration (Cmax)) was 9.3 µM. For the same molecule, the CC50 [4] was > 80000 nM, the CC50 [5] was > 80000 nM and the CC50 at 72 h [6] was > 25000 nM. For the same molecule, the possible safety window [7] was 4.6 to 13 times the efficacious dose, the EC50 [8] was 70 ± 20 nM and the EC50 ([9]; 48 h, 8-point dose response, triplicate, read-out: 48-h Giardia GS clone H7 EC50) was 2340 ± 80 nM. For the same molecule, the EC50 ([9]; Table 2, assemblage B, read-out: EC50 against G. lamblia strain GS clone 7) was 2340 ± 80 nM and the “most common adverse events” value [10] was “diarrhea and skin toxicities”.
